For orientation: IC50 means the midpoint of a concentration-inhibition curve.

Molecules are shown by their SMILES.

This assay concerns the target hENPP2 (Homo sapiens, UniProt Q13822). As to the kind of experiment: Human ENPP2 (hENPP2) biochemical assay using LPC as substrate. The settings on record: 150 µM LPC (palmitoyl 16:0), 37°C for 30 min. An outline of the steps: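 Enzyme at 1 or 3 µg/mL final in Tris-HCl pH 8.5, NaCl, KCl, CaCl2, fatty-acid-free BSA; reaction started with 150 µM LPC 16:0 (as added), 30 min at 37°C. Released choline developed with choline oxidase/peroxidase/TOOS/4-aminoantipyrine plus EGTA stop, read at 555 nm after 30 min; 1/3 dilutions from 50 µM give IC50.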
Turning to `Cc1cc(C)cc(Nc2ncc3c(n2)CN(C2CC(C)N(C(=O)c4ccc5[nH]nnc5c4)C(C)C2)C3)c1` (stereo not shown) [compound 68, 1H-benzotriazol-5-yl-[4-[2-(3,5-dimethylanilino)-5,7-dihydropyrrolo[3,4-d]pyrimidin-6-yl]-2,6-dimethyl-1-piperidyl]methanone], the IC50 is greater than 1000 nM. The figure for `Cc1cc(C)cc(Nc2ncc3c(n2)CN(C2CCN(C(=O)c4ccc5[nH]c(=O)sc5c4)CC2)C3)c1` [compound 69, 6-[4-[2-(3,5-dimethylanilino)-5,7-dihydropyrrolo[3,4-d]pyrimidin-6-yl]piperidine-1-carbonyl]-3H-1,3-benzothiazol-2-one] is 0.01 to 100 nM.

On to `Cc1cc(C)cc(Nc2ncc3c(n2)CN(C2CN(C(=O)c4ccc5[nH]c(=O)sc5c4)C2)C3)c1` [compound 70, 6-[3-[2-(3,5-dimethylanilino)-5,7-dihydropyrrolo[3,4-d]pyrimidin-6-yl]azetidine-1-carbonyl]-3H-1,3-benzothiazol-2-one], for which the IC50 fell in the range of 0.01 to 100 nM. The molecule `Cc1cc(C)cc(Nc2ncc3c(n2)CN(C2CCN(C(=O)c4ccc(NS(C)(=O)=O)cc4)CC2)C3)c1` [compound 72, N-[4-[4-[2-(3,5-dimethylanilino)-5,7-dihydropyrrolo[3,4-d]pyrimidin-6-yl]piperidine-1-carbonyl]phenyl]methanesulfonamide] returned an IC50 greater than 1000 nM. The figure for `Cc1cc(C)cc(Nc2ncc3c(n2)CN([C@@H]2CCN(C(=O)c4ccc5[nH]nnc5c4)[C@H](C)C2)C3)c1` [compound 73, 1H-benzotriazol-5-yl-[(2R,4R)-4-[2-(3,5-dimethylanilino)-5,7-dihydropyrrolo[3,4-d]pyrimidin-6-yl]-2-methyl-1-piperidyl]methanone] is 0.01 to 100 nM; for `Cc1cc(C)cc(Nc2ncc3c(n2)CN([C@H]2CCN(C(=O)c4ccc5[nH]nnc5c4)[C@@H](C)C2)C3)c1` [compound 74, 1H-benzotriazol-5-yl-[(2S,4S)-4-[2-(3,5-dimethylanilino)-5,7-dihydropyrrolo[3,4-d]pyrimidin-6-yl]-2-methyl-1-piperidyl]methanone] it is 0.01 to 100 nM; for `Cc1cc(C)cc(Nc2ncc3c(n2)CCCN(C2CCN(C(=O)c4ccc5nn[nH]c5c4)CC2)C3)c1` [compound 75, 3H-benzotriazol-5-yl-[4-[2-(3,5-dimethylanilino)-5,7,8,9-tetrahydropyrimido[5,4-c]azepin-6-yl]-1-piperidyl]methanone] it is greater than 1000 nM. `Cc1cc(C)cc(Nc2ncc3c(n2)CN(C2CN(C(=O)c4ccc5nn[nH]c5c4)CC2C)C3)c1` (stereo not shown) [compound 77, 3H-benzotriazol-5-yl-[3-[2-(3,5-dimethylanilino)-5,7-dihydropyrrolo[3,4-d]pyrimidin-6-yl]-4-methyl-pyrrolidin-1-yl]methanone] had an IC50 of 100 to 500 nM.

`Cc1cc(C)cc(Nc2ncc3c(n2)CN(C2[C@@H]4C[C@H]2CN(C(=O)c2ccc5[nH]nnc5c2)C4)C3)c1` (stereo partly drawn) [compound 78, 1H-benzotriazol-5-yl-[(1R,5S)-6-[2-(3,5-dimethylanilino)-5,7-dihydropyrrolo[3,4-d]pyrimidin-6-yl]-3-azabicyclo[3.1.1]heptan-3-yl]methanone] had an IC50 of 0.01 to 100 nM. The figure for `Cc1cc(C)cc(Nc2ncc3c(n2)CN(C2CCN(C(=O)c4cc5[nH]nnc5cc4F)CC2)C3)c1` [compound 79, [4-[2-(3,5-dimethylanilino)-5,7-dihydropyrrolo[3,4-d]pyrimidin-6-yl]-1-piperidyl]-(6-fluoro-3H-benzotriazol-5-yl)methanone] is 0.01 to 100 nM. For `Cc1cc(C)cc(Nc2ncc3c(n2)CN(C2CN(C(=O)c4cc5[nH]nnc5cc4F)C2)C3)c1` [compound 80, [3-[2-(3,5-dimethylanilino)-5,7-dihydropyrrolo[3,4-d]pyrimidin-6-yl]azetidin-1-yl]-(6-fluoro-3H-benzotriazol-5-yl)methanone], the IC50 fell in the range of 0.01 to 100 nM. The figure for `COc1cc2[nH]nnc2cc1C(=O)N1CC(N2Cc3cnc(Nc4cc(C)cc(C)c4)nc3C2)C1` [compound 81, [3-[2-(3,5-dimethylanilino)-5,7-dihydropyrrolo[3,4-d]pyrimidin-6-yl]azetidin-1-yl]-(6-methoxy-1H-benzotriazol-5-yl)methanone] is 0.01 to 100 nM; for `Cc1cc(C)cc(Nc2ncc3c(n2)CN(C2CN(C(=O)c4cc5nn[nH]c5cc4F)CC2C)C3)c1` (stereo not shown) [compound 82, [3-[2-(3,5-dimethylanilino)-5,7-dihydropyrrolo[3,4-d]pyrimidin-6-yl]-4-methyl-pyrrolidin-1-yl]-(6-fluoro-1H-benzotriazol-5-yl)methanone] it is 100 to 500 nM; for `COc1cc2[nH]nnc2cc1C(=O)N1CC(C)C(N2Cc3cnc(Nc4cc(C)cc(C)c4)nc3C2)C1` (stereo not shown) [compound 83, [3-[2-(3,5-dimethylanilino)-5,7-dihydropyrrolo[3,4-d]pyrimidin-6-yl] -4-methyl-pyrrolidin-1-yl]-(6-methoxy-1H-benzotriazol-5-yl)methanone] it is 100 to 500 nM.

In turn, `Cc1cc(C)cc(Nc2ncc3c(n2)CN(C2=C(C#N)CN(C(=O)c4ccc5nn[nH]c5c4)C2)C3)c1` [compound 85, 1-(3H-benzotriazole-5-carbonyl)-4-[2-(3,5-dimethylanilino)-5,7-dihydropyrrolo[3,4-d]pyrimidin-6-yl]-2,5-dihydropyrrole-3-carbonitrile] registered an IC50 of 100 to 500 nM. As for `Cc1cc(C)cc(Nc2ncc3c(n2)CCN(C2CN(C(=O)c4ccc5nn[nH]c5c4)CC2C)C3)c1` (stereo not shown) [compound 87, 3H -benzotriazol-5-yl-[3-[2-(3,5-dimethylanilino)-7,8-dihydro-5H-pyrido[4,3-d]pyrimidin-6-yl] -4-methyl-pyrrolidin-1-yl]methanone], the half-maximal inhibitory concentration (IC50) was in the range of 0.01 to 100 nM.

The molecule `COc1cc2[nH]nnc2cc1C(=O)N1CC(C)C(N2CCc3nc(Nc4cc(C)cc(C)c4)ncc3C2)C1` (stereo not shown) [compound 88, [3-[2-(3,5-dimethylanilino)-7,8-dihydro-5H-pyrido[4,3-d]pyrimidin-6-yl]-4-methyl-pyrrolidin-1-yl]-(6-methoxy-1H-benzotriazol-5-yl)methanone] returned an IC50 of 0.01 to 100 nM. Then `Cc1cc(C)cc(Nc2ncc3c(n2)CN([C@H]2CCN(C(=O)c4ccc5[nH]nnc5c4)[C@H](C)C2)C3)c1` [compound 92, 1H-benzotriazol-5-yl-[(2R,4S)-4-[2-(3,5-dimethylanilino)-5,7-dihydropyrrolo[3,4-d]pyrimidin-6-yl]-2-methyl-1-piperidyl]methanone], with 0.01 to 100 nM; and `Cc1cc(C)cc(Nc2ncc3c(n2)CN([C@@H]2CCN(C(=O)c4ccc5[nH]nnc5c4)[C@@H](C)C2)C3)c1` [compound 93, 1H-benzotriazol-5-yl-[(2S,4R)-4-[2-(3,5-dimethylanilino)-5,7-dihydropyrrolo[3,4-d]pyrimidin-6-yl]-2-methyl-1-piperidyl]methanone], with 0.01 to 100 nM. In the case of `Cc1cc(C)cc(Nc2ncc3c(n2)CCCN(C2CN(C(=O)c4ccc5[nH]nnc5c4)C2)C3)c1` [compound 94, 1H-benzotriazol-5-yl-[3-[2-(3,5-dimethylanilino)-5,7,8,9-tetrahydropyrimido[5,4-c]azepin-6-yl]azetidin-1-yl]methanone], the IC50 is greater than 1000 nM. Then `Cc1cc(C)cc(Nc2ncc3c(n2)C(C)(C)N(C2CN(C(=O)c4ccc5[nH]nnc5c4)C2)C3)c1` [compound 95, 1H-benzotriazol-5-yl-[3-[2-(3,5-dimethylanilino)-7,7-dimethyl-5H-pyrrolo[3,4-d]pyrimidin-6-yl]azetidin-1-yl]methanone], with 0.01 to 100 nM; and `Cc1cc(C)cc(Nc2ncc3c(n2)CCN([C@@H]2CCN(C(=O)c4ccc5[nH]nnc5c4)[C@H](C)C2)C3)c1` [compound 98, 1H-benzotriazol-5-yl-[(2R,4R)-4-[2-(3,5-dimethylanilino)-7,8-dihydro-5H-pyrido[4,3-d]pyrimidin-6-yl]-2-methyl-1-piperidyl]methanone], with 100 to 500 nM. The figure for `COc1cc2[nH]nnc2cc1C(=O)N1CC[C@@H](N2Cc3cnc(Nc4cc(C)cc(C)c4)nc3C2)C[C@H]1C` [compound 105, [(2R,4R)-4-[2-(3,5-dimethylanilino)-5,7-dihydropyrrolo[3,4-d]pyrimidin-6-yl]-2-methyl-1-piperidyl]-(6-methoxy-1H-benzotriazol-5-yl)methanone] is 0.01 to 100 nM. Then `COc1cc2[nH]nnc2cc1C(=O)N1CCC(N2Cc3cnc(Nc4cc(C)cc(C)c4)nc3C2)CC1` [compound 106, [4-[2-(3,5-dimethylanilino)-5,7-dihydropyrrolo[3,4-d]pyrimidin-6-yl]-1-piperidyl]-(6-methoxy-1H-benzotriazol-5-yl)methanone], with 0.01 to 100 nM; and `Cc1cc(C)cc(Nc2ncc3c(n2)CN(C2CCN(C(=O)c4ccc5[nH]nnc5c4)C(C(F)(F)F)C2)C3)c1` (stereo not shown) [compound 107, 1H-benzotriazol-5-yl-[4-[2-(3,5-dimethylanilino)-5,7-dihydropyrrolo[3,4-d]pyrimidin-6-yl]-2-(trifluoromethyl)-1-piperidyl]methanone], with 0.01 to 100 nM. As for `Cc1cc(C)cc(Nc2ncc3c(n2)CCN(C2CCN(C(=O)c4ccc5[nH]nnc5c4)CC2)CC3)c1` [compound 109, 1H-benzotriazol-5-yl-[4-[2-(3,5-dimethylanilino)-5,6,8,9-tetrahydropyrimido[4,5-d]azepin-7-yl]-1-piperidyl]methanone], the IC50 is 0.01 to 100 nM. Then `COc1cc2[nH]nnc2cc1C(=O)N1CC[C@@H](N2Cc3cnc(Nc4cc(C)cc(C)c4)nc3C2)C[C@@H]1C` [compound 112, [(2S,4R)-4-[2-(3,5-dimethylanilino)-5,7-dihydropyrrolo[3,4-d]pyrimidin-6-yl]-2-methyl-1-piperidyl]-(6-methoxy-1H-benzotriazol-5-yl)methanone], with 0.01 to 100 nM; and `COc1cc2[nH]nnc2cc1C(=O)N1CC[C@H](N2Cc3cnc(Nc4cc(C)cc(C)c4)nc3C2)C[C@@H]1C` [compound 113, [(2S,4S)-4-[2-(3,5-dimethylanilino)-5,7-dihydropyrrolo[3,4-d]pyrimidin-6-yl]-2-methyl-1-piperidyl]-(6-methoxy-1H-benzotriazol-5-yl)methanone], with 0.01 to 100 nM.

The values above are taken from patent EP3782997A1, “FUSED PYRIMIDINE COMPOUNDS AND PHARMACEUTICAL COMPOSITIONS THEREOF FOR THE TREATMENT OF FIBROTIC DISEASES” (Galapagos N.V., priority 2019, dated 2021).
